According to paper PMC4861903, “Synthesis of a highly water-soluble acacetin prodrug for treating experimental atrial fibrillation in beagle dogs” (Scientific Reports, 2016):

Tests used:
[1] = target: T1, IKACh (acetylcholine-activated K+ current) (Rattus norvegicus, UniProt P48548+P63251); experiment: Whole-cell IKACh elicited by 5 μM carbachol in rat atrial myocytes; assay type: cell-based; conditions: 30 μM, at −100 mV, n = 5
T1 construct: endogenous in cells; host or cells: atrial myocytes dissociated from male Sprague-Dawley rats
T1 sequence (P63251 1-501): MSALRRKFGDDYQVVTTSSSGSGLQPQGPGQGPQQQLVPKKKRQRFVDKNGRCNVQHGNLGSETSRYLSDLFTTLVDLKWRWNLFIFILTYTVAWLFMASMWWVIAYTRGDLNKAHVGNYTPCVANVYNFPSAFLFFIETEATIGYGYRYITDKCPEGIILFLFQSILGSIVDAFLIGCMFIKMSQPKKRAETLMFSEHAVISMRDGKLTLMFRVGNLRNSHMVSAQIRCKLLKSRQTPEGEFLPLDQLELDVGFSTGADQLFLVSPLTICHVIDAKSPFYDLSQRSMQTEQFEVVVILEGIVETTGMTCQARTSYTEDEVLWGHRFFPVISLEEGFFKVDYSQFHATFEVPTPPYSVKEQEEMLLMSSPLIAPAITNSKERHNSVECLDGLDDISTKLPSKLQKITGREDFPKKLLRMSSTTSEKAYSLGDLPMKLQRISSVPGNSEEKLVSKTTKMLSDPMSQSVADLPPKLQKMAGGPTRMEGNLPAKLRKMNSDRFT
T1 sequence (P48548 1-419): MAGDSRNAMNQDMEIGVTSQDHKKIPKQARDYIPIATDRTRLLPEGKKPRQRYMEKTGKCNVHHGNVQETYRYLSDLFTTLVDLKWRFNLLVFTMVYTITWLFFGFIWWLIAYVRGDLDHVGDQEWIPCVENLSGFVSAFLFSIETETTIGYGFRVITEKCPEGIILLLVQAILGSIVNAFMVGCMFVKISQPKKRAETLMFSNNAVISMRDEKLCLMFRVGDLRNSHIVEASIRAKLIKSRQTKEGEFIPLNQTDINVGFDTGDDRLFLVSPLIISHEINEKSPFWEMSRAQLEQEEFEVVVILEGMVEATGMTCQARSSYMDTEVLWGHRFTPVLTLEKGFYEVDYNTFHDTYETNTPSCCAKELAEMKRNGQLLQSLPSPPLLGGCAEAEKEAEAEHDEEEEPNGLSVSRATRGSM
Method: Whole-cell currents of hKv1.5 and hKv4.3 were recorded in established HEK 293 cell lines stably expressing hKv1.5 (KCN5A) and hKv4.3 (KCND3) and IKACh was determined in isolated rat atrial myocytes as described previously[12][31][32] and in Supplemental Materials. […]
Effects of acacetin prodrug on cardiac potassium currents […]
Cells on a coverslip were transferred to an open cell chamber (0.5 ml) mounted on the stage of an inverted microscope and superfused with Tyrode’s solution at 2 mL/min. The whole cell patch-clamp technique was used as described previously.1, 2 The whole-cell membrane currents were measured using an EPC-10 amplifier and Pulse software (Heka Elektronik, Lambrecht, Germany). Borosilicate glass electrodes (1.2-mm OD) were pulled with a Brown/Flaming puller (model P-97, Sutter Instrument, Nato, CA) and had resistances of 1.5~2.5 MΩ when filled with the pipette solution. A 3-M KCl agar bridge was used as the reference electrode. The tip potential was zeroed before the patch pipette contacted the cell. After a giga-Ohm seal was obtained, the cell membrane was ruptured by applying gentle pressure to establish a whole-cell configuration. […] The liquid junction potential (14.7 mV) calculated with the software Clampex was not corrected in the experiment and data […]
Whole-cell current of IKACh was determined in isolated rat atrial myocytes. […]

[2] = Ex vivo bioconversion of acacetin prodrug in rat liver microsome; assay type: in vitro ADME; conditions: 37 °C, n = 3
Method: The ex vivo bioconversion of acacetin prodrug was determined in rat plasma or rat hepatic microsome that contains high content alkaline phosphatase, as described previously[30] and in Supplemental Materials. The in vivo bioconversion of acacetin prodrug was determined in beagle dogs as described in Supplemental Materials. […]
Bioconversion of acacetin prodrug was also determined in rat hepatic microsomes containing high content alkaline phosphatase,5 as described previously.6 Sprague-Dawley rat liver microsomes were purchased from Invitrogen (Hong Kong, China). The reaction mixture was prepared in 50 mM Tris-HCl buffer (pH = 7.4) with 1 mM NADPH (nicotinamide adenine dinucleotide phosphate) and 0.5 mg/mL (total protein) microsomes. Prodrug solutions were added to the microsomes reaction mixture with a final concentration of 5 µg/mL. The reaction solution was incubated in a water bath at 37℃ and shaken at 60 rpm for 1 h. The samples were collected at 0, 1, 2, 15, 30 and 60 min. The reaction was terminated by adding 200 μL cold methanol containing internal standard (pentamethylquercetin, 50 ng/ml). After centrifugation at 12000 g for 30 min, the supernatant was immediately analyzed by HPLC. […]

## COc1ccc(-c2cc(=O)c3c(O)cc(OP(=O)([O-])[O-])cc3o2)cc1.[Na+].[Na+] [acacetin prodrug, phosphate sodium salt of acacetin]
[1]
  inhibition of IK.ACh: no significant inhibition
[2]; 1 min incubation
  prodrug converted into acacetin: 60%
[2]; 30 min incubation
  prodrug converted into acacetin: 100%
